# From publication PMC4942054 (PLoS ONE, 2016)
# Target: T1, dihydrofolate reductase (DHFR) from chicken liver (Gallus gallus, UniProt P00378)
# T1 sequence (P00378 1-189): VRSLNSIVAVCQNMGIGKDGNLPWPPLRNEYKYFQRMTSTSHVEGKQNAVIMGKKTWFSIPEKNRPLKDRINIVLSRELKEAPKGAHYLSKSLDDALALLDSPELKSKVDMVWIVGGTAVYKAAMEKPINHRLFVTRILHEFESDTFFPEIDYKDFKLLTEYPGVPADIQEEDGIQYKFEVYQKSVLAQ
# Assay: DHF-dependent NADPH oxidation, absorbance at […] nm
# Assay type: biochemical
# Conditions: 0.187 mM DHF, 0.137 mM NADPH, 0.5 M KCl, 0.05 M Tris-HCl pH 7.5, 25°C, 40 min; partially purified enzyme 35 μg/ml; sample released from PEG40 conjugate at pH 3.0, equipotent to MTX-hexamethylenamine
structure (smiles),measurement,value
CN(Cc1cnc2nc(N)nc(N)c2n1)c1ccc(C(=O)N[C@@H](CCC(=O)NCCCCCCN)C(=O)O)cc1 [MTX-hexamethylenamine],IC50,190 ± 7 nM
